Assays:
Phytophthora infestans = experiment: whole plant or invertebrate; type: in vivo; settings: in Solanum lycopersicum, 72 h, read-out: Efficacy
[1] = logP by HPLC (EEC Directive 79/831 Annex V. A8, gradient method); type: physicochemical; settings: acetonitrile/0.1% aqueous phosphoric acid
Procedure: In Table 1, Me represents methyl. The logP values were determined in accordance with EEC Directive 79/831 Annex V. A8 by HPLC (gradient method, acetonitrile/0.1% aqueous phosphoric acid).

SMILES | pest or weed control at 100 g/ha (Phytophthora infestans) [%] | chromatographic logP [1]
Cc1ccc(C)c(Oc2noc(=O)n2S(=O)(=O)N(C)C)c1 [Example 1, N,N-dimethyl-3-(2,5-dimethylphenoxy)-5-oxo-[1,2,4]oxadiazole-4-sulphonamide] | 99 | 
CCS(=O)(=O)n1c(Oc2cc(C)ccc2C)noc1=O [Example 2, 3-(2,5-dimethylphenoxy)-4-ethanesulphonyl-4H-[1,2,4]oxadiazol-5-one] | 95 | 
COc1ccc(Oc2noc(=O)n2S(=O)(=O)c2ccc(C)cc2)cc1 [Example 3] |  | 3.34
Cc1ccc(S(=O)(=O)n2c(Oc3cc(C)ccc3C)noc2=O)cc1 [Example 4] |  | 3.93
Cc1ccc(S(=O)(=O)n2c(Oc3ccc(F)cc3)noc2=O)cc1 [Example 6] |  | 3.39
Cc1ccc(C)c(Oc2noc(=O)n2S(C)(=O)=O)c1 [Example 8] |  | 2.7
Cc1ccc(S(=O)(=O)n2c(Oc3ccc(C)cc3C)noc2=O)cc1 [Example 9] |  | 3.89
Cc1ccc(Oc2noc(=O)n2S(C)(=O)=O)c(C)c1 [Example 10] | 92 | 2.73
Cc1ccc(Oc2noc(=O)n2S(=O)(=O)N(C)C)c(C)c1 [Example 12] | 97 | 3.13
COc1ccc(Oc2noc(=O)n2S(=O)(=O)N(C)C)cc1 [Example 13] | 92 | 2.5
CCS(=O)(=O)n1c(Oc2ccc(C)cc2C)noc1=O [Example 14] | 97 | 2.95
CN(C)S(=O)(=O)n1c(Oc2ccc(Cl)cc2)noc1=O [Example 15] |  | 2.94
Cc1ccc(Oc2noc(=O)n2S(=O)(=O)N(C)C)cc1C [Example 16] | 99 | 3.15
CN(C)S(=O)(=O)n1c(Oc2ccc(Br)cc2)noc1=O [Example 17] | 94 | 
CN(C)S(=O)(=O)n1c(Oc2ccccc2)noc1=O [Example 18] | 95 | 2.48
CN(C)S(=O)(=O)n1c(Oc2ccc(F)cc2)noc1=O [Example 19] |  | 2.58
Cc1cccc(Oc2noc(=O)n2S(=O)(=O)N(C)C)c1 [Example 20] |  | 2.83
CN(C)S(=O)(=O)n1c(Oc2cccc(C(F)(F)F)c2)noc1=O [Example 21] |  | 3.13
CN(C)S(=O)(=O)n1c(Oc2ccc(Cl)c(Cl)c2)noc1=O [Example 22] |  | 3.37

SMILES | pest or weed control at 100 g/ha (Phytophthora infestans) [%] | chromatographic logP [1]
COc1ccccc1Oc1noc(=O)n1S(=O)(=O)N(C)C [Example 23] |  | 2.49
CCN(CC)S(=O)(=O)n1c(Oc2cccc(OC)c2)noc1=O [Example 28] |  | 3.14
CCN(CC)S(=O)(=O)n1c(Oc2ccccc2C)noc1=O [Example 29] |  | 3.33
Cc1cccc(Oc2noc(=O)n2S(=O)(=O)N(C)C)c1C [Example 30] |  | 3.04
CCN(CC)S(=O)(=O)n1c(Oc2ccc(C)cc2C)noc1=O [Example 31] |  | 3.72
Cc1cc(C)cc(Oc2noc(=O)n2S(=O)(=O)N(C)C)c1 [Example 32] |  | 3.18
CCN(CC)S(=O)(=O)n1c(Oc2cc(C)cc(C)c2)noc1=O [Example 33] |  | 3.75
COC(=O)c1cccc(Oc2noc(=O)n2S(=O)(=O)N(C)C)c1 [Example 34] |  | 2.54
CCN(CC)S(=O)(=O)n1c(Oc2cc(C)ccc2C)noc1=O [Example 35] |  | 3.7
CCN(CC)S(=O)(=O)n1c(Oc2cccc(C)c2C)noc1=O [Example 36] |  | 3.64
CCN(CC)S(=O)(=O)n1c(Oc2cccc(C(=O)OC)c2)noc1=O [Example 37] |  | 3.09
CCN(CC)S(=O)(=O)n1c(Oc2ccc(Cl)cc2)noc1=O [Example 38] |  | 3.53
CCN(CC)S(=O)(=O)n1c(Oc2ccccc2)noc1=O [Example 39] |  | 3.06
COc1cccc(Oc2noc(=O)n2S(=O)(=O)N(C)C)c1OC [Example 40] |  | 2.58
CCN(CC)S(=O)(=O)n1c(Oc2c(C)cccc2C)noc1=O [Example 42] |  | 3.64
CCN(CC)S(=O)(=O)n1c(Oc2cccc(C)c2)noc1=O [Example 43] |  | 3.42
CCN(CC)S(=O)(=O)n1c(Oc2ccc(OC)cc2)noc1=O [Example 44] |  | 3.1
CCN(CC)S(=O)(=O)n1c(Oc2ccc(C)cc2)noc1=O [Example 45] |  | 3.42
CCN(CC)S(=O)(=O)n1c(Oc2ccccc2OC)noc1=O [Example 46] |  | 3.05

SMILES | pest or weed control at 100 g/ha (Phytophthora infestans) [%] | chromatographic logP [1]
CN(C)S(=O)(=O)n1c(Oc2ccccc2F)noc1=O [Example 47] |  | 2.55
CCN(CC)S(=O)(=O)n1c(Oc2cccc(C(F)(F)F)c2)noc1=O [Example 48] |  | 3.68
CCN(CC)S(=O)(=O)n1c(Oc2cccc(OC)c2OC)noc1=O [Example 49] |  | 3.15
CCN(CC)S(=O)(=O)n1c(Oc2ccc(F)cc2)noc1=O [Example 50] |  | 3.16
CN(C)S(=O)(=O)n1c(Oc2ccc(Cl)cc2Cl)noc1=O [Example 51] |  | 3.29
CN(C)S(=O)(=O)n1c(Oc2ccc(OC(F)(F)F)cc2)noc1=O [Example 52] |  | 3.3
CN(C)S(=O)(=O)n1c(Oc2ccc(Oc3ccccc3)cc2)noc1=O [Example 53] |  | 3.58
CCN(CC)S(=O)(=O)n1c(Oc2ccc(Oc3ccccc3)cc2)noc1=O [Example 54] |  | 4.19
CN(C)S(=O)(=O)n1c(Oc2cccc(Cl)c2)noc1=O [Example 55] |  | 2.95
CCN(CC)S(=O)(=O)n1c(Oc2cccc(Cl)c2)noc1=O [Example 56] |  | 3.53
CN(C)S(=O)(=O)n1c(Oc2ccc3c(c2)CCC3)noc1=O [Example 57] |  | 3.3
CCN(CC)S(=O)(=O)n1c(Oc2ccc3c(c2)CCC3)noc1=O [Example 58] |  | 3.88
CCN(C)S(=O)(=O)n1c(Oc2ccc(Oc3ccccc3)cc2)noc1=O [Example 59] |  | 3.83
CN(C)S(=O)(=O)n1c(Oc2ccc(-c3ccccc3)cc2)noc1=O [Example 60] |  | 3.56
CN(C)S(=O)(=O)n1c(Oc2ccccc2-c2ccccc2)noc1=O [Example 61] |  | 3.37
CCN(CC)S(=O)(=O)n1c(Oc2ccc(OC(F)(F)F)cc2)noc1=O [Example 62] |  | 3.82
CCN(CC)S(=O)(=O)n1c(Oc2ccc(Cl)cc2Cl)noc1=O [Example 63] |  | 3.88
CCN(C)S(=O)(=O)n1c(Oc2cc(C)ccc2C)noc1=O [Example 64] |  | 3.42
COc1cccc(OC)c1Oc1noc(=O)n1S(=O)(=O)N(C)C [Example 65] |  | 2.51

Source: US6100281A, “Sulphonyloxadiazolones” (Bayer Aktiengesellschaft, priority 1997, dated 2000)
